Measured values taken from US4588722A, “N-(4-piperidinyl) bicyclic condensed 2-imidazolamine derivatives” (priority 1984, dated 1986).
Structures can show the parent of a compound that is named as a salt.

Test system: compound 48/80-induced lethality in rats
Assay: Protection of rats from compound 48/80-induced lethality
Type: in vivo, rat (male, inbred Wistar strain)
Details: Rattus norvegicus; test compound subcutaneously or orally (route of each value not given) 1 hour before compound 48/80 0.5 mg/kg intravenously; dose protecting 50% of animals, survival after 4 hours; read-out: Compound 48/80 lethality test in rats-ED50
Text: PROTECTION OF RATS FROM COMPOUND 48/80-INDUCED LETHALITY
Compound 48/80, a mixture of oligomers obtained by condensation of 4-methoxy-N-methylbenzeneethanamine and formaldehyde has been described as a potent histamine releasing agent (Int. Arch. Allergy, 13, 336 (1958)). The protection from compound 48/80-induced lethal circulatory collapse appears to be a simple way of evaluating quantitatively the antihistaminic activity of test compounds. Male rats of an inbred Wistar strain, weighing 240-260 g were used in the experiment. After overnight starvation the rats were transferred to conditioned laboratories (temp.=21±1° C., relative humidity=65±5%). The rats were treated subcutaneously or orally with a test compound or with the solvent (NaCl solution, 0.9%). One hour after treatment there was injected intravenously compound 48/80, freshly dissolved in water, at a dose of 0.5 mg/kg (0.2 ml/100 g of body weight). In control experiments, wherein 250 solvent-treated animals were injected with the standard dose of compound 48/80, not more than 2.8% of the animals survived after 4 hours. Survival after 4 hours is therefore considered to be a safe criterion of a protective effect of drug administration.
Said ED50 -values are the values in mg/kg body weight at which the tested compounds protect 50% of the tested animals against compound 48/80-induced lethality.

Question: With `O.O=c1oc2ccccc2cc1CCN1CCC(Nc2nc3ccccc3n2Cc2ccco2)CC1` [Compound 14, 3-[2-[4-[[1-(2-furanylmethyl)-1H-benzimidazol-2-yl]amino]-1-piperidinyl]ethyl]-2H-1-benzopyran-2-one monohydrate] as the molecule, how does the ED50 read?
Answer: 0.08 mg/kg

Question: `O=CNCCN1CCC(Nc2nc3ccccc3n2Cc2ccco2)CC1` [Compound 46, N-[2-[4-[[1-(2-furanylmethyl)-1H-benzimidazol-2-yl]amino]-1-piperidinyl]ethyl]formamide hemihydrate] was tested. Which ED50 did it give?
Answer: 0.16 mg/kg

Question: How did the ED50 turn out when `NC(=O)Nc1ccc(CCN2CCC(Nc3nc4ccccc4n3Cc3ccc(F)cc3)CC2)cc1` [Compound 56] was run?
Answer: 0.04 mg/kg

Question: For `O=c1oc2ccccc2cc1CCN1CCC(Nc2nc3cccnc3n2Cc2ccccn2)CC1` [Compound 7, 3-[2-[4-[[3-(2-pyridinylmethyl)-3H-imidazo[4,5-b]pyridin-2-yl]amino]-1-piperidinyl]ethyl]-2H-1benzopyran-2-one trihydrochloride.dihydrate], which ED50 is on record?
Answer: 0.04 mg/kg

Question: With `COc1ccc(CCN2CCC(Nc3nc4ncccc4n3Cc3ccc(F)cc3)CC2)cc1` [Compound 2, 1-[(4-fluorophenyl)methyl]-N-[1-[2-(4-methoxyphenyl)ethyl]-4-piperidinyl]-1H-imidazo[4,5-b]pyridin-2-amine] as the molecule, how does the ED50 read?
Answer: 0.08 mg/kg

Question: How did the ED50 turn out when `CCN(C(C)=O)c1ccccc1C(=O)NCCN1CCC(Nc2nc3ccccc3n2Cc2ccc(F)cc2)CC1` [Compound 52, 2-(acetylethylamino)-N-[2-[4-[[(1-[(4-fluorophenyl)methyl]-1H-benzimidazol-2yl]amino]-1-piperidinyl]ethyl]benzamide (E) -2-butenedioate(1:2)] was run?
Answer: 0.31 mg/kg

Question: For `CC(=O)Nc1ccccc1C(=O)NCCN1CCC(Nc2nc3ccccc3n2Cc2ccc(F)cc2)CC1` [Compound 51, 2-(acetylamino)-N-[2-[4-[[1-[(4-fluorophenyl)methyl]-1H-benzimidazol-2-yl]amino]-1-piperidinyl]ethyl]benzamide], which ED50 is on record?
Answer: 0.16 mg/kg

Question: `NNC(=S)NCCN1CCC(Nc2nc3ccccc3n2Cc2ccc(F)cc2)CC1.O` [Compound 34, N-[2-[4-[[1-[(4-fluorophenyl)methyl]-1H-benzimidazol-2-yl]amino]-1-piperidinyl]ethyl]hydrazinecarbothioamide monohydrate] was tested. Which ED50 did it give?
Answer: 0.02 mg/kg
